Key:
[1] = Depth of the etched (porous) enamel layer with aqueous citric acid solution, parameters of equation (1)
Text: The inventors conducted a series of tests to determine the optimal pH, temperature and time for tooth rejuvenation, and for designing various devices for the tooth rejuvenation procedure. […] The enamel surface is not homogeneous, it contains inorganic components, such as hydroxyapatite, in the form of crystals oriented towards its surface. The enamel surface also contains organic components, such as proteins. When the organic and inorganic components are exposed to an aqueous acid solution, such exposure leads to the deconstruction and removal of these components to a certain depth into the enamel, forming a superficial porous layer. Stains, bacteria and the weak components of the enamel are removed from the porous layer, bleached or destroyed by the acid. Exposure time, pH and the concentration and temperature of the solution all affect the depth of tissue treatment and structure of surface after treatment. The removal and bleaching of the organic component is important because this component contains the most pigment. The organic component is however, tightly bound to the inorganic component, which occurs during tooth formation and is not affected by factors such as frequency of tooth brushing, or the type of toothpaste used. Because of this, bleaching removes both the organic and the bonded inorganic components.
The ability of an aqueous acidic solution to deconstruct and dissolve both organic and inorganic components depends on the period of time, pH, concentration, and temperature at which the process occurs. The color of the enamel after stain removal and bleaching is determined by how closely the structure after etching matches the natural structure and how well light is scattered from the surface of the tooth. Remineralization is however, a slow process, so caution in carrying out the procedure is recommended, and it is desirable to protect the new surface with a hard material. To achieve this, the present invention proposes the use of a high concentration of acid to minimize the time of treatment. For a high concentration of acid to be used safely within the oral cavity, two fundamental safety concerns need to be addressed: firstly toxicity and secondly soft tissue damage. To completely eliminate the toxicity problem, especially for home use, we propose the use of an edible acid which is non-toxic when ingested. The volume of acid for any application in the present invention is limited to several cubic centimeters. After dissolution in saliva the concentration of the acid ingested will drop, and the pH will increase, which is typical for foodstuffs. A typical pH for food acids is 2.5 or more. We have studied the effect of a low pH (<2.5) edible acid on intact enamel.
The temperature of the acid is another parameter to be optimized for enamel etching when using a high concentration of acid. An increase in temperature increases the depth of etching due to two factors: first, it increases the diffusion coefficient and, second, the rate of the chemical reaction between the acid and the enamel due to Arrenius law. […] These graphs can be described by the following formula: […]
Here, hw is the depth of the porous layer of enamel in μm after t min of etching as a function of t. Parameters cc, ct, and D can be the functions of both temperature T and pH.
The parameters α, cc, and D were found using the best square fit.

[2] = Six-hour exposure of extracted teeth to gel or citric acid; conditions: +24° C.
Text: Control of etching using highly concentrated edible acid can be achieved by using different additives. The interaction between acid and hard tissue leads to a dissolution of mineral components and modification of organic components. Three types of dissolution are known: Type I, where enamel rods are removed preferentially, Type II, where the organic matrix is removed preferentially, and Type III, where both Type I and Type II dissolution take place. […] The present invention, proposes to control the etching process, using edible acid with a special additive. One of control mechanisms involves additives, including, but not limited to, the ions of Ca Cr, Ba Cd, Mg, P, SiF, and their compounds, such as PO4. Other non-organic or organic additives may also be used. Additions of such ion combinations may slow the dissolution of the inter-prismatic regions or may provide for re-crystallization of hydroxyapatite crystallites, or the building of new crystallites of fluroapatite. The use of such additives can be effective in the control of tooth etching, or in the preparation of the tooth surface for the application of a protective or cosmetic coating, or for the thermal re-crystallization of the tooth surface.
Extracted teeth with healthy enamel were used in the experiment. One half of enamel surface of each tooth was covered with a protective cover (“control side”). The other side (“treatment side”) was left unprotected. […]

[3] = 180-minute exposure of tooth halves to citric acid solution or gel, then methylene blue; conditions: pH=1.5, +20° C., 180 minutes
Description: Exposure in both cases was for 180 minutes and the tooth was then washed in distilled water. […] The tooth was then exposed to an aqueous solution of methylene blue.

## O=C(O)CC(O)(CC(=O)O)C(=O)O [citric acid]
[1]; 50° C., pH=1.5, from the presented graphs (exposure time 10 min)
  etched depth of the tooth enamel: 40 μm
[1]; T = 50° C., pH 1
  D, parameter of equation (1), thickness of porous (etched) layer of enamel: 94.035 μm^2/min
  α1, parameter of equation (1), thickness of porous (etched) layer of enamel: 1.069 μm/min
  α, parameter of equation (1), thickness of porous (etched) layer of enamel: 3.195 μm/min
[1]; T = 50° C., pH 2
  D, parameter of equation (1), thickness of porous (etched) layer of enamel: 4.646 μm^2/min
  α1, parameter of equation (1), thickness of porous (etched) layer of enamel: 0.559 μm/min
  α, parameter of equation (1), thickness of porous (etched) layer of enamel: 1.022 μm/min
[1]; T = 50° C., pH 2.5
  α1, parameter of equation (1), thickness of porous (etched) layer of enamel: −0.018 μm/min
  α, parameter of equation (1), thickness of porous (etched) layer of enamel: 0.211 μm/min
[1]; pH = 1.5, 20 °C
  D, parameter of equation (1), thickness of porous (etched) layer of enamel: 2.604 μm^2/min
  α1, parameter of equation (1), thickness of porous (etched) layer of enamel: 0.158 μm/min
  α, parameter of equation (1), thickness of porous (etched) layer of enamel: 0.524 μm/min
[1]; pH = 1.5, 37 °C
  D, parameter of equation (1), thickness of porous (etched) layer of enamel: 23.124 μm^2/min
  α1, parameter of equation (1), thickness of porous (etched) layer of enamel: 0.515 μm/min
  α, parameter of equation (1), thickness of porous (etched) layer of enamel: 1.751 μm/min
[1]; pH = 1.5, 40 °C
  D, parameter of equation (1), thickness of porous (etched) layer of enamel: 36.801 μm^2/min
  α1, parameter of equation (1), thickness of porous (etched) layer of enamel: 0.469 μm/min
  α, parameter of equation (1), thickness of porous (etched) layer of enamel: 1.921 μm/min
[1]; pH = 1.5, 45 °C
  D, parameter of equation (1), thickness of porous (etched) layer of enamel: 74.738 μm^2/min
  α1, parameter of equation (1), thickness of porous (etched) layer of enamel: 0.833 μm/min
  α, parameter of equation (1), thickness of porous (etched) layer of enamel: 2.767 μm/min
[1]; pH = 1.5, 50 °C
  D, parameter of equation (1), thickness of porous (etched) layer of enamel: 121.664 μm^2/min
  α1, parameter of equation (1), thickness of porous (etched) layer of enamel: 1.31 μm/min
  α, parameter of equation (1), thickness of porous (etched) layer of enamel: 3.755 μm/min
[1]; pH = 1.5, 60 °C
  D, parameter of equation (1), thickness of porous (etched) layer of enamel: 122.528 μm^2/min
  α1, parameter of equation (1), thickness of porous (etched) layer of enamel: 1.504 μm/min
  α, parameter of equation (1), thickness of porous (etched) layer of enamel: 4.124 μm/min
[2]
  hardness of treated surface (dental probe / versus control side): easily damaged by scratching with a dental probe
  predominant etching pattern: Type I etching
  specular reflection property of tooth surface: completely lost its specular reflection property
  whitening effect of treated sides: comparable
[3]
  coloration by aqueous methylene blue after exposure: colored by methylene blue
  type of enamel etching: Type I etching
  whitening effect: strong whitening effect
